Assay results as given in the supplement of paper PMC10331698.
± gives the standard deviation of the averaged measurements.

What was measured:
Assay in all cases: level (log10 ratio to DMSO vehicle control); higher = higher biomarker level / cell amount than vehicle control
[1] = compound: FC(F)(F)C(F)(F)C(F)(F)C(F)(F)C(F)(F)C(F)(F)C(F)(F)I [1-Iodopentadecafluoroheptane]; settings: in DMSO
Experimental: (§1)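 BioMAP Diversity Plus panel of 12 human primary cell co-culture systems (3C, 4H, LPS, SAg, BT, BF4T, BE3C, CASM3C, HDF3CGF, KF3CT, MyoF, Mphg). Compounds were added 1 h before stimulation and left for 24 h (MyoF 48 h; BT 72 h for soluble read-outs or 6 d for IgG). Biomarkers were read by ELISA, cytotoxicity by SRB, PBMC viability and proliferation by Alamar Blue. Each well value was divided by the mean of 8 DMSO control wells on the same plate and log10 transformed; duplicate blinded samples were tested at 4 concentrations.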

[2] = compound: FC(F)(F)C(F)(F)C(F)(F)CC1CO1 [1H,1H-Heptafluorobutyl epoxide]; settings: in DMSO
Experimental: as §1

[3] = compound: O=C(O)C=CC(F)(C(F)(F)F)C(F)(F)F [3-(Perfluoroisopropyl)-2-propenoic acid]; settings: in DMSO
Experimental: as §1

[4] = compound: FC(F)(F)C(F)(F)CNCC(F)(F)C(F)(F)F [Bis(1H,1H-perfluoropropyl)amine]; settings: in DMSO
Experimental: as §1

[5] = compound: C=CC(=O)OCC(F)(F)C(F)(F)C(F)(F)COC(=O)C=C [1H,1H,5H,5H-Perfluoro-1,5-pentanediol diacrylate]; settings: 6700 nM; in DMSO
Experimental: as §1

[6] = compound: C=C(C)C(=O)OCCC(F)(F)C(F)(F)C(F)(F)C(F)(F)C(F)(F)C(F)(F)F [6:2 Fluorotelomer methacrylate]; settings: in DMSO
Experimental: as §1

Test System	level (log10) ([1]; 6700 nM)	level (log10) ([1]; 20000 nM)	level (log10) ([2]; 6700 nM)	level (log10) ([2]; 20000 nM)	level (log10) ([2]; 60000 nM)	level (log10) ([3]; 6700 nM)	level (log10) ([3]; 20000 nM)	level (log10) ([3]; 60000 nM)	level (log10) ([4]; 6700 nM)	level (log10) ([4]; 20000 nM)	level (log10) ([4]; 60000 nM)	level (log10) [5]	level (log10) ([6]; 6700 nM)	level (log10) ([6]; 20000 nM)	level (log10) ([6]; 60000 nM)
BT:sIL-2	-0.113 ± 0.07	-0.017 ± 0.081	-0.0245 ± 0.0092	-0.055 ± 0.15	0.022 ± 0.18	0.029 ± 0.058	-0.049 ± 0.12	0.001 ± 0.0085	-0.011 ± 0.064	0.012 ± 0.064	0.0645 ± 0.1	-0.651 ± 0.08	0.0005 ± 0.012	-0.0195 ± 0.053	-0.036 ± 0.025
LPS:sTNF-alpha	0.0115 ± 0.018	0.0025 ± 0.0092	-0.003 ± 0.014	-0.0055 ± 0.012	-0.014 ± 0.0085	0.003 ± 0.1	0.0345 ± 0.057	0.0395 ± 0.03	0.007 ± 0.028	0.005 ± 0.013	-0.0005 ± 0.0078	-0.008 ± 0.0057	0.031 ± 0.028	0.0415 ± 0.021	0.0405 ± 0.022
BF4T:SRB	-0.0085 ± 0.0092	-0.008 ± 0.0014	-0.004 ± 0.0057	0.0005 ± 0.005	0.0025 ± 0.005	-0.008 ± 0.011	-0.008 ± 0.0099	0.006 ± 0.018	-0.004 ± 0.0071	-0.0065 ± 0.0064	0.0005 ± 0.0078	-0.005 ± 0.0042	0.002 ± 0.0071	-0.003 ± 0.0071	-0.0035 ± 0.012
SAg:CCL2/MCP-1	0.02 ± 0.05	0.0105 ± 0.033	0.0055 ± 0.0035	-0.009 ± 0.0071	-0.025 ± 0.017	-0.003 ± 0.0042	-0.0005 ± 0.016	-0.0055 ± 0.0064	-0.013 ± 0.016	-0.006 ± 0.0099	0.017 ± 0.028	-0.13 ± 0.04	-0.001 ± 0.058	0 ± 0.025	0.0135 ± 0.005
BT:sIL-17F	-0.0435 ± 0.049	-0.0545 ± 0.16	0.0235 ± 0.015	-0.0505 ± 0.063	0.0025 ± 0.1	-0.088 ± 0.081	-0.014 ± 0.054	0.0025 ± 0.043	-0.088 ± 0.042	-0.0175 ± 0.076	0.0375 ± 0.0064	-1 ± 0.04	-0.0095 ± 0.032	-0.023 ± 0.02	-0.046 ± 0.014
BF4T:uPA	-0.0365 ± 0.016	-0.026 ± 0.016	-0.0065 ± 0.013	0.0025 ± 0.022	-0.028 ± 0.034	-0.007 ± 0.016	-0.016 ± 0.0057	0.0065 ± 0.018	-0.025 ± 0.011	-0.0205 ± 0.013	-0.0165 ± 0.0092	-0.019 ± 0.013	-0.006 ± 0.0057	0.0005 ± 0.026	0.006 ± 0.011
BE3C:CXCL11/I-TAC	0.0005 ± 0.015	0.004 ± 0.013	0.0015 ± 0.00071	0.0115 ± 0.005	0.013 ± 0.0014	-0.0175 ± 0.0078	-0.009 ± 0.0057	0.005 ± 0.011	-0.026 ± 0.013	-0.0135 ± 0.016	0.008 ± 0.016	0.0085 ± 0.011	0.0125 ± 0.023	0 ± 0.014	0.0155 ± 0.028
SAg:CD62E/E-Selectin	-0.0415 ± 0.056	-0.008 ± 0.044	-0.0065 ± 0.043	-0.013 ± 0.0057	-0.015 ± 0.016	0 ± 0.011	0.0045 ± 0.013	-0.006 ± 0.0042	0.001 ± 0.013	-0.0075 ± 0.016	0.01 ± 0.031	-0.469 ± 0.1	-0.011 ± 0.038	0.0105 ± 0.015	0.0105 ± 0.0064
BE3C:HLA-DR	0.0035 ± 0.0021	0.0015 ± 0.0078	0.002 ± 0.013	-0.0075 ± 0.012	-0.01 ± 0.025	-0.0075 ± 0.013	0.0035 ± 0.015	0.0095 ± 0.018	-0.0025 ± 0.012	-0.0115 ± 0.0021	0.012 ± 0.031	-0.0175 ± 0.028	0.0015 ± 0.016	-0.0065 ± 0.0064	0.0125 ± 0.005
LPS:CXCL8/IL-8	0.026 ± 0.055	0.0325 ± 0.005	-0.019 ± 0.031	-0.0135 ± 0.028	0.003 ± 0.031	-0.0055 ± 0.019	-0.0205 ± 0.023	-0.0015 ± 0.019	-0.0185 ± 0.005	-0.0325 ± 0.037	0.017 ± 0.099	-0.0285 ± 0.00071	0.006 ± 0.014	0.023 ± 0.011	0.0455 ± 0.015
BE3C:IL-1alpha	-0.0175 ± 0.005	-0.0185 ± 0.0021	0.024 ± 0.024	0.01 ± 0.051	0.0265 ± 0.066	-0.001 ± 0.031	-0.0065 ± 0.0064	0.0025 ± 0.005	0.0045 ± 0.022	0.0005 ± 0.018	0.007 ± 0.018	-0.0415 ± 0.03	0.0025 ± 0.016	-0.0125 ± 0.0035	0.003
SAg:Proliferation	0.0055 ± 0.043	-0.0105 ± 0.026	-0.0295 ± 0.059	0.017 ± 0.059	0.055 ± 0.054	0.009 ± 0.016	-0.008 ± 0.037	0.008 ± 0.04	-0.0275 ± 0.012	-0.0025 ± 0.052	0.0295 ± 0.076	-0.421 ± 0.035	-0.027 ± 0.034	-0.0435 ± 0.042	-0.0375 ± 0.03
BF4T:PAI-I	-0.004 ± 0.0085	-0.0235 ± 0.0092	-0.0035 ± 0.011	-0.007 ± 0.0057	-0.02 ± 0.0014	0 ± 0.0099	0.001 ± 0.0014	0.0155 ± 0.026	-0.008 ± 0.0014	-0.005	0.006 ± 0.016	-0.0285 ± 0.00071	-0.0175 ± 0.011	-0.007 ± 0.0042	-0.0075 ± 0.0035
LPS:SRB	0.0035 ± 0.0064	0.003 ± 0.0042	0.0085 ± 0.013	0.002	-0.005 ± 0.0071	-0.0015 ± 0.018	-0.011 ± 0.016	-0.0115 ± 0.028	-0.008 ± 0.0042	0.001 ± 0.016	-0.0015 ± 0.0021	-0.02 ± 0.0042	-0.003 ± 0.0042	-0.0035 ± 0.0064	-0.0025 ± 0.00071
LPS:sPGE2	-0.062 ± 0.013	-0.103 ± 0.027	0.007 ± 0.03	0.005 ± 0.05	0.0105 ± 0.00071	0.01 ± 0.065	0.046 ± 0.023	0.0575 ± 0.025	0.038 ± 0.033	0.005 ± 0.0014	0.0485 ± 0.067	-0.105 ± 0.028	0.0125 ± 0.0078	0.027 ± 0.0099	0.0025 ± 0.046
BE3C:CD54/ICAM-1	-0.0125 ± 0.026	0.006 ± 0.013	0.001 ± 0.0028	-0.013 ± 0.034	0.0055 ± 0.015	0.002 ± 0.0057	-0.005	0.004 ± 0.0071	-0.012 ± 0.0085	-0.008 ± 0.0099	0.0085 ± 0.044	-0.018 ± 0.014	-0.0055 ± 0.0064	-0.0085 ± 0.011	0.015 ± 0.0099
SAg:PBMC Cytotoxicity	-0.0165 ± 0.028	0.0265 ± 0.026	-0.0095 ± 0.0092	-0.005 ± 0.013	0.0345 ± 0.011	-0.0035 ± 0.0078	0.0015 ± 0.0035	-0.005 ± 0.017	0.01 ± 0.013	-0.011 ± 0.0028	-0.0055 ± 0.037	-0.111 ± 0.0035	-0.0305 ± 0.057	0.0085 ± 0.0021	0.015 ± 0.0099
BF4T:MMP-1	-0.0055 ± 0.018	0.0005 ± 0.0035	0.014 ± 0.02	0.009 ± 0.024	0.019 ± 0.048	-0.0055 ± 0.012	-0.0055 ± 0.0035	0.017 ± 0.03	-0.009 ± 0.0071	-0.0005 ± 0.00071	0.01 ± 0.011	0.031 ± 0.016	-0.0015 ± 0.005	0.015 ± 0.011	0.015 ± 0.013
LPS:CD141/Thrombomodulin	0.0215 ± 0.023	-0.024 ± 0.075	0.059 ± 0.0071	0.039 ± 0.079	0.019 ± 0.033	-0.024 ± 0.037	-0.022 ± 0.0057	-0.036 ± 0.02	0.046 ± 0.088	0.0005 ± 0.14	-0.0095 ± 0.096	0.0505 ± 0.054	-0.039 ± 0.025	-0.0465 ± 0.04	-0.091 ± 0.017
BE3C:CXCL9/MIG	-0.0035 ± 0.021	0.003 ± 0.013	-0.0125 ± 0.0064	0 ± 0.0028	-0.0075 ± 0.0064	0.0135 ± 0.015	0.016 ± 0.017	0.0235 ± 0.013	-0.0065 ± 0.0035	-0.0055 ± 0.00071	0.005 ± 0.021	0.0095 ± 0.0021	0.0055 ± 0.028	0.008 ± 0.035	0.015 ± 0.045
